Measured values: patent US12201608B2, “Methods for treating Parkinson's disease by administering resiniferatoxin” (Sorrento Therapeutics, Inc., priority 2018, dated 2025)
“Also recorded” adds a separate entry of the source.

What was measured:
[1] = system: dopamine and its metabolite levels in the striatum, AAV-A53T mouse model of PD-like pathology; test: Dopamine and metabolites in ipsilateral and contralateral striatum by HPLC; type: in vivo, C57Bl/6J male mice; conditions: for dopamine levels in striatum: vs AAV-A53T vehicle
Procedure: (§1) For this study, a total of 110 male C57Bl/6J mice two months of age were infused with either AAV-A53T (90 mice) or AAV-Null (20 mice) into substantia nigra unilaterally to induce PD-like pathology or to serve as sham controls, respectively. Mice infused with AAV-Null (empty) vector (“sham-infused” mice) were used in order to control for the effect of the viral infusion. After 7 or 14 days of AAV-A53T mediated disease model induction, the mice were treated with RTX (0.04 μg or 0.125 μg) (5 μL volume, prepared from a 25 μg/ml RTX solution containing Polysorbate 80 at 0.03% w/v, dextrose at 0.05% w/v, Phosphate Buffer at 30 mM, and NaCl 0.54% w/v, pH 7.2, and diluted in saline as needed) by single intrathecal infusion at lumbar spinal cord area. One AAV-Null and AAV-A53T infused group per each time point were treated with vehicle instead of RTX.
(§2) The mice were then treated with RTX or vehicle by intrathecal infusion 7 or 14 days after AAV infusion. The mice were assigned to treatment groups as follows: • Group 1: 10 male mice sham-infused with AAV-null, and administered vehicle at D7. • Group 2: 15 male mice infused with AAV-A53T, and administered vehicle at D7. • Group 3: 15 male mice infused with AAV-A53T, and administered 0.04 μg of RTX at D7. • Group 4: 15 male mice infused with AAV-A53T, and administered 0.125 μg of RTX at D7. • Group 5: 10 male mice sham-infused with AAV-null, and administered vehicle at D14. • Group 6: 15 male mice infused with AAV-A53T, and administered vehicle at D14. • Group 7: 15 male mice infused with AAV-A53T, and administered 0.04 μg of RTX at D14. • Group 8: 15 male mice infused with AAV-A53T, and administered 0.125 μg of RTX at D14.
Body weight of the animals was monitored two times per week. Fine motor kinematic analysis was performed 7 weeks after AAV infusion. 8 weeks post AAV infusion, the mice were euthanized and subjected to tissue sample collection. Dopamine and its metabolites were analyzed from ipsilateral and contralateral striata by high performance liquid chromatography (HPLC).
Ipsi- and contralateral striatum were collected in 1.5 mL Eppendorf tubes, snap-frozen on dry ice (i.e. left and right separately), weighed and stored at −80° C. for HPLC analysis of dopamine and its metabolites.
Dopamine (DA), 3,4-dihydroxyphenylacetic acid (DOPAC) and homovanillic acid (HVA) concentrations in mouse striatal tissue samples were determined by high performance liquid chromatography (HPLC) method with electrochemical detection. After thawing on ice, tissue samples were homogenized (1:10, w/v) in 0.1 M perchloric acid with MSE Soniprep 150 ultrasonic disintegrator (MSE Scientific Instruments, Crawley, UK). Tissue homogenates were centrifuged for 15 min at 15000 g at 4° C. Supernatants were filtered through polypropylene membrane (GHP Acrodisc 13 0.45 μm, Pall Corporation, Ann Arbor, MI, USA) and diluted (1:1) with 0.1 M perchloric acid. The samples were transferred into plastic vials and analyzed immediately.
The ESA HPLC system (ESA Inc., Chelmsford, MA, USA) consists of a 582 solvent delivery system, a DG-1210 vacuum degasser, an 542 autosampler, a 880 thermostatted chamber, an eight-channel CoulArray® 5600 electrochemical array detector equipped with a two-channel 5014B microdialysis cell and a CoulArray® for Windows data acquisition module (version 1.00). The applied potentials are −175 mV (channel 1), +225 mV (channel 2), +350 mV (channel 3) and +450 mV (channel 4). DA and DOPAC are detected on channel 2 and HVA on channel 3. Injection volume is 10 μl.
The analytes were separated on a Zorbax SB-Aq reversed-phase column (2.1×100 mm, 3.5 μm, Agilent Technologies Inc., Little Falls, Wilmington, DE, USA) with a Zorbax SB-Aq precolumn (2.1×12.5 mm, 5 μm) in an isocratic run. The column was maintained at 35° C. The mobile phase was 100 mM monobasic sodium phosphate containing 4.75 mM citric acid monohydrate, 7 mM 1-octanesulfonic acid and 50 μM disodium EDTA-acetonitrile mixture (98:2, v/v). […]

[2] = system: AAV-A53T mouse model of Parkinson's Disease-like (PD) pathology; test: Fine motor kinematic gait analysis 7 weeks after AAV infusion; type: in vivo, C57Bl/6J male mice; conditions: for overall gait analysis score: vs AAV1/2-A53T Vehicle
Procedure: as §1, §2
The fine motor skills of the mice were evaluated 7 weeks post infusion (MotoRater, TSE Systems, Homburg, Germany) using walking mode. On the day of testing the mice were marked in appropriate points of body, such as joints of limbs and parts of tail to ease the data analysis process. The movement data was captured using a high-speed camera (300 frames/second) from three different dimensions, from below and both sides. Different gait patterns and movements were analyzed using a custom-made automated analysis system. The analyzed parameters include: 1) general gait pattern parameters (stride time and speed, step width, stance and swing time during a stride, interlimb coordination), 2) body posture and balance (toe clearance, iliac crest and hip height, hind limb protraction and retraction, tail position and movement), and 3) fine motor skills (swing speed during a stride, jerk metric during swing phase, angle ranges and deviations of different joints, vertical and horizontal head movement).
The gait parameters always have several (and complex) inter-correlations. For example, a shorter stride duration and longer step lengths lead to higher speed. Different “gait features”, which are manifested in sets of highly correlating parameters, can be identified using Principal Component Analysis (PCA). Principal Component Analysis is a statistical tool to compact the information in a multivariate data set, reveal correlations between original variables, and ultimately, create a small set of new and sensitive uncorrelated parameters, the principal components (PC).
PCA is a linear transformation based on principal component coefficients and eigenvectors. The transformed, new, uncorrelated variables are called the PC scores. The first principal component (PC) corresponds to such linear combination of data which has the largest possible variance. The second PC has again the largest possible variance of what is left when the proportion of the first PC is discarded, and so on for the rest of the PCs. The eigen vectors also reveal information about the internal structure of the data, i.e., mutually correlated parameters. Each PC score represent combined information of all the parameters which are emphasized in the corresponding PC. […]

[3] = high dose, 7 days after AAV-A53T infusion, statistically non-significant (one-way ANOVA)
[4] = D7 both doses, vs AAV-A53T Vehicle, p<0.05 unpaired t-test
[5] = D7 high dose, vs AAV-A53T Vehicle, p<0.05 unpaired t-test

Structure (SMILES): C=C(C)[C@]12C[C@@H](C)[C@@]34O[C@](Cc5ccccc5)(O[C@@H]1[C@@H]3C=C(COC(=O)Cc1ccc(O)c(OC)c1)C[C@]1(O)C(=O)C(C)=C[C@@H]41)O2 [RTX, Resiniferatoxin]
- dopamine and its metabolites levels, treatment effect ([1]; AAV-A53T vehicle groups vs corresponding RTX groups, striata 8 weeks after model induction): no significant effects of RTX treatment; also recorded: no significant treatment effect
- dopamine turnover ((DOPAC + HVA) / dopamine) ([1]; both doses, 7 and 14 days after AAV-A53T infusion, statistically non-significant (Kruskal-Wallis test)): minor trend towards even higher turnover rates
- DOPAC levels in striatum ([1]; groups treated at day 14): non-significant trend of lower DOPAC levels
- HVA levels in striatum ([1]; groups treated at day 14): non-significant trend of lower HVA levels
- dopamine levels in striatum ([1]; groups treated at day 14): non-significant trend of lower dopamine levels
- DOPAC levels in striatum [1, 3]: minor trend towards higher DOPAC levels
- HVA level in striatum [1, 3]: minor trend towards higher concentration
- dopamine levels in striatum [1, 3]: minor trend towards higher dopamine levels
- diagonal gait [2, 4]: significantly recovered
- hip ROM [2, 4]: significantly recovered
- hind limb stance time [2, 5]: significantly recovered
- hip ROM deviation [2, 5]: significantly recovered
- homolateral and homologous gait [2, 5]: significantly recovered
- minimum knee angle [2, 5]: significantly recovered
- single and double support [2, 5]: significantly recovered
- stride time [2, 5]: significantly recovered
- support diagonal [2, 5]: significantly recovered
- support three [2, 5]: significantly recovered
- head rotation ([2]; D14 both doses, vs AAV-A53T Vehicle, p<0.05 unpaired t-test): significantly recovered
- hip ROM ([2]; D14 high dose, vs AAV-A53T Vehicle, p<0.05 unpaired t-test): significantly recovered
- overall gait analysis score ([2]; RTX 0.04 μg at D7, Dunnett's test p=0.0063): significant treatment effect; also recorded: significantly improved
- overall gait analysis score ([2]; RTX 0.125 μg at D7, Dunnett's test p=0.0011): significant treatment effect; also recorded: significantly improved
- overall gait analysis score ([2]; both RTX doses at D14, p>0.05 one-way ANOVA): statistically non-significant trend towards the respective AAV-Null group; also recorded: statistically non-significant trending effect; also recorded: not statistically significant; also recorded: trend towards the AAV1/2-Null group
- recovery of motor functions / motor skills ([2]; early RTX treatment (D7), analyzed 7 weeks after AAV infusion): significant rescuing effect; also recorded: dose-dependent recovery of motor functions
